Source: PubChem BioAssay AID194 (DTP/NCI, 2004)
“And” between values parts separate entries of the source, which are not always exact repeats. Equal entries are not always repeated. Inconclusive results are not listed.

Test system: BDF1 mice, B16 melanoma s.c., survival/tumor T/C
Experiment: NCI In Vivo Anticancer Drug Screen. Data for tumor model B16 Melanoma (subcutaneous) in B6D2F1 (BDF1) mice
Method: The antitumor activity of compounds was measured in mice bearing transplantable tumors. Survival or tumor size were measured and the results are expressed as the measurement made in the treated group (T) divided by the measurement made in the vehicle treated control group (C). The tumor model used in this assay is B16 Melanoma (subcutaneous) in B6D2F1 (BDF1) mice

[1] = endpoint: median survival time, dose: 12.5 mg/kg/injection, schedule: Q01DX009 (ip), vehicle: Klucel (hydroxypropylcellulose) (HPC), higher = longer survival

CO[C@H](C(=O)[C@@H](O)[C@@H](C)O)[C@@H]1Cc2cc3cc(OC4CC(OC5CC(O)C(O)C(C)O5)C(O)C(C)O4)c(C)c(O)c3c(O)c2C(=O)[C@H]1OC1CC(OC2CC(OC3CC(C)(O)C(O)C(C)O3)C(O)C(C)O2)C(O)C(C)O1 (some centres not stated)
T/C (endpoint: median survival time, dose: 0.12 mg/kg/injection, schedule: Q01DX009 (ip), vehicle: saline, higher = longer survival): 100 % of control
T/C (endpoint: median survival time, dose: 0.25 mg/kg/injection, schedule: Q01DX009 (ip), vehicle: saline, higher = longer survival): 114 % of control
T/C (endpoint: median survival time, dose: 0.5 mg/kg/injection, schedule: Q01DX009 (ip), vehicle: saline, higher = longer survival): 116 % of control
T/C (endpoint: median survival time, dose: 1.0 mg/kg/injection, schedule: Q01DX009 (ip), vehicle: saline, higher = longer survival): 118 % of control
T/C (endpoint: median survival time, dose: 3.8 micrograms/kg/injection, schedule: Q01DX009 (ip), vehicle: water, higher = longer survival): 104 % of control
T/C (endpoint: median survival time, dose: 7.5 micrograms/kg/injection, schedule: Q01DX009 (ip), vehicle: water, higher = longer survival): 107 % of control
T/C (endpoint: median survival time, dose: 15.0 micrograms/kg/injection, schedule: Q01DX009 (ip), vehicle: water, higher = longer survival): 101 % of control
T/C (endpoint: median survival time, dose: 30.0 micrograms/kg/injection, schedule: Q01DX009 (ip), vehicle: water, higher = longer survival): 114 % of control
T/C (endpoint: median survival time, dose: 60.0 micrograms/kg/injection, schedule: Q01DX009 (ip), vehicle: water, higher = longer survival): 93 % of control
T/C (endpoint: median survival time, dose: 120.0 micrograms/kg/injection, schedule: Q01DX009 (ip), vehicle: water, higher = longer survival): 91 % of control
T/C (endpoint: median survival time, dose: 250.0 micrograms/kg/injection, schedule: Q01DX009 (ip), vehicle: water, higher = longer survival): 86 % of control

CCCCC[C@H](O)/C=C/[C@@H]1[C@@H](C/C=C\CCCC(=O)O)[C@@H](O)C[C@H]1O
T/C (endpoint: median survival time, dose: 2.5 mg/kg/injection, schedule: Q04DX002 (ip), vehicle: saline with Tween-80, higher = longer survival): 89 % of control
T/C (endpoint: median survival time, dose: 5.0 mg/kg/injection, schedule: Q04DX002 (ip), vehicle: saline with Tween-80, higher = longer survival): 110 % of control
T/C (endpoint: median survival time, dose: 10.0 mg/kg/injection, schedule: Q04DX002 (ip), vehicle: saline with Tween-80, higher = longer survival): 106 % of control
T/C (endpoint: median survival time, dose: 20.0 mg/kg/injection, schedule: Q04DX002 (ip), vehicle: saline with Tween-80, higher = longer survival): 93 % of control
T/C (endpoint: median survival time, dose: 40.0 mg/kg/injection, schedule: Q04DX002 (ip), vehicle: saline with Tween-80, higher = longer survival): 114 % of control
T/C (endpoint: median survival time, dose: 80.0 mg/kg/injection, schedule: Q04DX002 (ip), vehicle: saline with Tween-80, higher = longer survival): 86 % of control
T/C (endpoint: median survival time, dose: 160.0 mg/kg/injection, schedule: Q04DX002 (ip), vehicle: saline with Tween-80, higher = longer survival): 90 % of control

CNNCc1ccc(C(=O)NC(C)C)cc1
T/C (endpoint: median survival time, dose: 40.0 mg/kg/injection, schedule: Q01DX009 (ip), vehicle: Klucel (hydroxypropylcellulose) (HPC), higher = longer survival): 102 % of control
T/C (endpoint: median survival time, dose: 80.0 mg/kg/injection, schedule: Q01DX009 (ip), vehicle: Klucel (hydroxypropylcellulose) (HPC), higher = longer survival): 113 % of control
T/C (endpoint: median survival time, dose: 160.0 mg/kg/injection, schedule: Q01DX009 (ip), vehicle: Klucel (hydroxypropylcellulose) (HPC), higher = longer survival): 102 % of control and 115 % of control
T/C (endpoint: median survival time, dose: 320.0 mg/kg/injection, schedule: Q01DX009 (ip), vehicle: Klucel (hydroxypropylcellulose) (HPC), higher = longer survival): 95 % of control

COc1cc2c[n+](C)c3c4cc5c(cc4ccc3c2cc1OC)OCO5
T/C (endpoint: median survival time, dose: 3.12 mg/kg/injection, schedule: Q01DX009 (ip), vehicle: Klucel (hydroxypropylcellulose) (HPC), higher = longer survival): 107 % of control
T/C (endpoint: median survival time, dose: 6.25 mg/kg/injection, schedule: Q01DX009 (ip), vehicle: Klucel (hydroxypropylcellulose) (HPC), higher = longer survival): 96 % of control
T/C [1]: 116 % of control

CC1(C)N=C(N)N=C(N)N1c1ccc(CCCCc2ccc(S(=O)(=O)F)cc2Cl)c(Cl)c1
T/C (endpoint: median survival time, dose: 6.25 mg/kg/injection, schedule: Q01DX009 (ip), vehicle: saline, higher = longer survival): 119 % of control
T/C (endpoint: median survival time, dose: 12.5 mg/kg/injection, schedule: Q01DX009 (ip), vehicle: saline, higher = longer survival): 90 % of control
T/C (endpoint: median survival time, dose: 18.75 mg/kg/injection, schedule: Q04DX003 (ip), vehicle: saline, higher = longer survival): 88 % of control
T/C (endpoint: median survival time, dose: 25.0 mg/kg/injection, schedule: Q01DX009 (ip), vehicle: saline, higher = longer survival): 111 % of control
T/C (endpoint: median survival time, dose: 37.5 mg/kg/injection, schedule: Q04DX003 (ip), vehicle: saline, higher = longer survival): 105 % of control
T/C (endpoint: median survival time, dose: 75.0 mg/kg/injection, schedule: Q04DX003 (ip), vehicle: saline, higher = longer survival): 110 % of control
T/C (endpoint: median survival time, dose: 150.0 mg/kg/injection, schedule: Q04DX003 (ip), vehicle: saline, higher = longer survival): 119 % of control

O=NN(CCCl)C(=O)NC1CCCCC1
T/C (endpoint: median survival time, dose: 4.0 mg/kg/injection, schedule: Q01DX009 (ip), vehicle: saline, higher = longer survival): 115 % of control
T/C (endpoint: median survival time, dose: 5.18 mg/kg/injection, schedule: Q01DX007 (ip), vehicle: Klucel (hydroxypropylcellulose) (HPC), higher = longer survival): 103 % of control
T/C (endpoint: median survival time, dose: 8.64 mg/kg/injection, schedule: Q01DX007 (ip), vehicle: Klucel (hydroxypropylcellulose) (HPC), higher = longer survival): 88 % of control
T/C (endpoint: median survival time, dose: 12.0 mg/kg/injection, schedule: Q01DX001 (ip), vehicle: Klucel (hydroxypropylcellulose) (HPC), higher = longer survival): 111 % of control and 112 % of control and 116 % of control
T/C (endpoint: median survival time, dose: 14.4 mg/kg/injection, schedule: Q01DX007 (ip), vehicle: Klucel (hydroxypropylcellulose) (HPC), higher = longer survival): 124 % of control
T/C (endpoint: median survival time, dose: 16.0 mg/kg/injection, schedule: Q01DX009 (ip), vehicle: saline, higher = longer survival): 175 % of control
T/C (endpoint: median survival time, dose: 32.0 mg/kg/injection, schedule: Q01DX009 (ip), vehicle: saline, higher = longer survival): 105 % of control
T/C (endpoint: median tumor weight (est.), dose: 8.0 mg/kg/injection, schedule: Q01DX009 (ip), vehicle: Klucel (hydroxypropylcellulose) (HPC), higher = larger tumour): 28 % of control and 47 % of control
T/C (endpoint: median tumor weight (est.), dose: 12.5 mg/kg/injection, schedule: Q01DX001 (ip), vehicle: Klucel (hydroxypropylcellulose) (HPC), higher = larger tumour): 96 % of control and 110 % of control
T/C (endpoint: median tumor weight (est.), dose: 16.0 mg/kg/injection, schedule: Q01DX009 (ip), vehicle: Klucel (hydroxypropylcellulose) (HPC), higher = larger tumour): 27 % of control
T/C (endpoint: median tumor weight (est.), dose: 50.0 mg/kg/injection, schedule: Q01DX001 (ip), vehicle: Klucel (hydroxypropylcellulose) (HPC), higher = larger tumour): 21 % of control
T/C (endpoint: median tumor weight (est.), dose: 100.0 mg/kg/injection, schedule: Q01DX001 (ip), vehicle: Klucel (hydroxypropylcellulose) (HPC), higher = larger tumour): 38 % of control

CO[C@@]12[C@H](COC(N)=O)C3=C(C(=O)C(C)=C(N)C3=O)N1C[C@@H]1N[C@@H]12
T/C (endpoint: median survival time, dose: 0.25 mg/kg/injection, schedule: Q01DX009 (ip), vehicle: Klucel (hydroxypropylcellulose) (HPC), higher = longer survival): 95 % of control
T/C (endpoint: median survival time, dose: 0.5 mg/kg/injection, schedule: Q01DX009 (ip), vehicle: Klucel (hydroxypropylcellulose) (HPC), higher = longer survival): 110 % of control
T/C (endpoint: median survival time, dose: 2.0 mg/kg/injection, schedule: Q01DX009 (ip), vehicle: Klucel (hydroxypropylcellulose) (HPC), higher = longer survival): 154 % of control
T/C (endpoint: median tumor weight (est.), dose: 0.25 mg/kg/injection, schedule: Q01DX009 (ip), vehicle: saline, higher = larger tumour): 77 % of control
T/C (endpoint: median tumor weight (est.), dose: 0.5 mg/kg/injection, schedule: Q01DX009 (ip), vehicle: saline, higher = larger tumour): 101 % of control
T/C (endpoint: median tumor weight (est.), dose: 1.0 mg/kg/injection, schedule: Q01DX009 (ip), vehicle: saline, higher = larger tumour): 70 % of control
T/C (endpoint: median tumor weight (est.), dose: 2.0 mg/kg/injection, schedule: Q01DX009 (ip), vehicle: saline, higher = larger tumour): 30 % of control

CN(C)c1ccc(C(=O)c2ccc(N(C)C)cc2)cc1
T/C (endpoint: median survival time, dose: 100.0 mg/kg/injection, schedule: Q01DX009 (ip), vehicle: Klucel (hydroxypropylcellulose) (HPC), higher = longer survival): 113 % of control
T/C (endpoint: median survival time, dose: 200.0 mg/kg/injection, schedule: Q01DX009 (ip), vehicle: Klucel (hydroxypropylcellulose) (HPC), higher = longer survival): 98 % of control
T/C (endpoint: median survival time, dose: 400.0 mg/kg/injection, schedule: Q01DX009 (ip), vehicle: Klucel (hydroxypropylcellulose) (HPC), higher = longer survival): 110 % of control

Nc1nncs1
T/C (endpoint: median survival time, dose: 59.0 mg/kg/injection, schedule: Q01DX009 (ip), vehicle: saline with Tween-80, higher = longer survival): 108 % of control
T/C (endpoint: median survival time, dose: 1200.0 mg/kg/injection, schedule: Q04DX003 (ip), vehicle: saline with Tween-80, higher = longer survival): 121 % of control
T/C (endpoint: median survival time, dose: 1800.0 mg/kg/injection, schedule: Q04DX003 (ip), vehicle: saline with Tween-80, higher = longer survival): 104 % of control
T/C (endpoint: median survival time, dose: 2000.0 mg/kg/injection, schedule: Q01DX001 (ip), vehicle: saline with Tween-80, higher = longer survival): 108 % of control
T/C (endpoint: median survival time, dose: 3000.0 mg/kg/injection, schedule: Q01DX001 (ip), vehicle: saline with Tween-80, higher = longer survival): 113 % of control

CN(Cc1cnc2nc(N)nc(N)c2n1)c1ccc(C(=O)N[C@@H](CCC(=O)O)C(=O)O)cc1
T/C (endpoint: median survival time, dose: 0.5 mg/kg/injection, schedule: Q01DX009 (ip), vehicle: saline with Tween-80, higher = longer survival): 100 % of control
T/C (endpoint: median survival time, dose: 1.0 mg/kg/injection, schedule: Q01DX009 (ip), vehicle: saline with Tween-80, higher = longer survival): 100 % of control
T/C (endpoint: median survival time, dose: 2.0 mg/kg/injection, schedule: Q01DX009 (ip), vehicle: saline with Tween-80, higher = longer survival): 89 % of control
T/C (endpoint: median tumor weight (est.), dose: 0.5 mg/kg/injection, schedule: Q01DX009 (ip), vehicle: saline with Tween-80, higher = larger tumour): 173 % of control
T/C (endpoint: median tumor weight (est.), dose: 1.0 mg/kg/injection, schedule: Q01DX009 (ip), vehicle: saline with Tween-80, higher = larger tumour): 81 % of control

COc1cccc2c1C(=O)c1c(O)c3c(c(O)c1C2=O)CC(O)(C(=O)CO)CC3OC1CC(N)C(O)C(C)O1 (configuration not stated)
T/C (endpoint: median survival time, dose: 2.9 mg/kg/injection, schedule: Q01DX009 (ip), vehicle: saline, higher = longer survival): 103 % of control
T/C (endpoint: median survival time, dose: 5.8 mg/kg/injection, schedule: Q01DX009 (ip), vehicle: saline, higher = longer survival): 107 % of control

S=c1nc[nH]c2nc[nH]c12
T/C [1]: 103 % of control and 118 % of control
T/C (endpoint: median survival time, dose: 25.0 mg/kg/injection, schedule: Q01DX009 (ip), vehicle: saline with Tween-80, higher = longer survival): 100 % of control
T/C (endpoint: median survival time, dose: 50.0 mg/kg/injection, schedule: Q01DX009 (ip), vehicle: saline with Tween-80, higher = longer survival): 100 % of control
T/C (endpoint: median survival time, dose: 100.0 mg/kg/injection, schedule: Q01DX009 (ip), vehicle: saline with Tween-80, higher = longer survival): 93 % of control
T/C (endpoint: median tumor weight (est.), dose: 25.0 mg/kg/injection, schedule: Q01DX009 (ip), vehicle: saline with Tween-80, higher = larger tumour): 103 % of control
T/C (endpoint: median tumor weight (est.), dose: 50.0 mg/kg/injection, schedule: Q01DX009 (ip), vehicle: saline with Tween-80, higher = larger tumour): 91 % of control
